The target of one assay is T1, Tyrosine-protein kinase JAK2 (Homo sapiens, UniProt O60674). The experiment in a line: Binding affinity to human C-terminal His8-tagged JAK2 pseudokinase (513 to 827 residues) expressed in baculovirus infected Hi-5 cells by intrinsic tryptophan fluorescence assay.
T1 sequence (O60674 whole entry, the tested form may be a part): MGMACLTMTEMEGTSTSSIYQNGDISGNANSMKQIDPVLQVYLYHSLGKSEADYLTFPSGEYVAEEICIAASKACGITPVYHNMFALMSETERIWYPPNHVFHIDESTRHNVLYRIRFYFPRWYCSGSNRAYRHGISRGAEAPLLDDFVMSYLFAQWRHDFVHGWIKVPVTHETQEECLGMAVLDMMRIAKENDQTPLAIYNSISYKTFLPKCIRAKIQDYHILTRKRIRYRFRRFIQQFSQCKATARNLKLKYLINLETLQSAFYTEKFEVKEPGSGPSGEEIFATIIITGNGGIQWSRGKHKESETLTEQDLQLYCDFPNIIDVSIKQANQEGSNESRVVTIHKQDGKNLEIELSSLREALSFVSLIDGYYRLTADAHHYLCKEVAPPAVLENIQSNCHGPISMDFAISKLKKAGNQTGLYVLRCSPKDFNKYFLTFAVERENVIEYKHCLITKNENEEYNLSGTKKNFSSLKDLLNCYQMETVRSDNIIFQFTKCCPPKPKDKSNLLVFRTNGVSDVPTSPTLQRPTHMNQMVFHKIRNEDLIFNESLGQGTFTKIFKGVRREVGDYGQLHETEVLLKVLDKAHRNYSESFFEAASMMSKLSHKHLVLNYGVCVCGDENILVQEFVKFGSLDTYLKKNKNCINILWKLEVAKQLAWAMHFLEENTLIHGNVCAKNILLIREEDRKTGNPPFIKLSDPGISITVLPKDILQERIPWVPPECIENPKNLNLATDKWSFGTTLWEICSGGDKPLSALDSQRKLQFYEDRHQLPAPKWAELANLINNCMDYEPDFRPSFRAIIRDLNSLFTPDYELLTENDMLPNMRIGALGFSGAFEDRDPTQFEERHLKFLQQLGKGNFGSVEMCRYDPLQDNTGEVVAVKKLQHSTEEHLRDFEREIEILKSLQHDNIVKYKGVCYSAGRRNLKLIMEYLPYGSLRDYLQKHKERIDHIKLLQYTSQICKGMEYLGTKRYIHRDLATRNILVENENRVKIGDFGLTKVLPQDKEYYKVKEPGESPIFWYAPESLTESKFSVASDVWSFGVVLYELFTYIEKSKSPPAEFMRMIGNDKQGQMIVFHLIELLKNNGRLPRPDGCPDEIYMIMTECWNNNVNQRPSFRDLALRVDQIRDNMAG
As for `CC(C)CCN1c2nc(Nc3cc(F)c(O)c(F)c3)ncc2N(C)C(=O)C1C` (stereo not drawn), the Kd – broadly, a measure of binding affinity in units of concentration – was 0.62 µM.

A further assay addresses T1, Tyrosine-protein kinase JAK2. Further details: species or system Sf9.
The compound `Nc1nc(Nc2ccc(S(N)(=O)=O)cc2)nn1Cc1c(F)cccc1F` displayed a dissociation constant (Kd) of 16.7 µM.

For the compound `N#Cc1ccc(Nc2nc(N)n(C(=O)Nc3cccc(OCC(=O)O)c3)n2)cc1`, the affinity, expressed as Kd, was 4 µM.

Compound `Nc1nc(Nc2ccc(S(N)(=O)=O)cc2)nn1C(=O)Nc1ccc(-c2ccc(C(=O)O)o2)cc1` showed a dissociation constant Kd of 0.439 µM.

For the compound `Nc1nc(Nc2ccc(S(N)(=O)=O)cc2)nn1C(=O)Nc1cccnc1`, the Kd is 12.3 µM. Compared with the last compound, the Kd is about 28-fold higher.

The compound `Nc1nc(Nc2ccc(S(N)(=O)=O)cc2)nn1C(=O)Nc1ccccn1` showed a Kd of 30.5 µM.

Take `Nc1nc(Nc2ccc(S(N)(=O)=O)cc2)nn1C(=O)Nc1ccccc1`: binding was characterised by a dissociation constant (Kd) of 4.7 µM.

The compound `COC(=O)COc1ccc(NC(=O)n2nc(Nc3ccc(S(N)(=O)=O)cc3)nc2N)cc1` displayed a Kd of 1.9 µM.

Compound `Nc1nc(Nc2ccc(S(N)(=O)=O)cc2)nn1C(=O)Nc1ccc(-c2nnc(C(=O)O)o2)cc1` yielded a Kd of 7 µM.

For `CN(C(=O)n1nc(Nc2ccc(S(N)(=O)=O)cc2)nc1N)c1ccccc1`, the dissociation constant (Kd) is 47.8 µM.

`CC(C)CCN1c2nc(Nc3cc(F)c(O)c(F)c3)ncc2N(C)C(=O)C1C` (stereo not drawn): the Kd is 2 µM. Compared with the last compound, the Kd is about 24-fold lower.

Another assay shares this target. As to the kind of experiment: Binding affinity to wild type 6XHis-tagged human JAK2 JH2 domain (513 to 827 residues) expressed in baculovirus infected Sf9 cells by MANT-ATP binding assay.
`Nc1ncnc2c1ncn2[C@@H]1O[C@H](COP(=O)(O)OP(=O)(O)OP(=O)(O)O)[C@@H](O)[C@H]1O` [ADENOSINE TRIPHOSPHATE] showed a dissociation constant (Kd) of 1.3 µM.

For another assay, the target named is Tyrosine-protein kinase JAK2 (Homo sapiens, UniProt O60674, V617F). As to the kind of experiment: Binding affinity to 6XHis-tagged human JAK2 JH2 domain V617F mutant (513 to 827 residues) expressed in baculovirus infected Sf9 cells by MANT-ATP binding assay.
Tyrosine-protein kinase JAK2 (Homo sapiens, UniProt O60674, V617F), sequence (O60674 whole entry V617F, the tested form may be a part): as the sequence (O60674 whole entry, the tested form may be a part) above, with V617F counted along it
In turn, `Nc1ncnc2c1ncn2[C@@H]1O[C@H](COP(=O)(O)OP(=O)(O)OP(=O)(O)O)[C@@H](O)[C@H]1O` [ADENOSINE TRIPHOSPHATE] gave a dissociation constant Kd of 1.3 µM.

These data come from ChEMBL document CHEMBL4354882, “Selective Janus Kinase 2 (JAK2) Pseudokinase Ligands with a Diaminotriazole Core” (J Med Chem, 2020).
